Columns and labels:
RIP OVAlo mice = assay: Breaking tolerance in RIP OVAlo mice; type: in vivo, mouse; conditions: four immunisations at 3 weeks intervals; SIINFEKL restimulation
Source text: RIP OVAlo mice were used to test the potential for tolerance breaking of the GMCSF+Imiquimod combination (FIG. 20). RIP OVAlo mice express ovalbumin (OVA) on the insulin producing beta cells of the pancreas and are therefore tolerant to this molecule. Disruption of this tolerance results in autoimmune destruction of the beta cells leading to diabetes which can be easily monitored by measurement of glycosuria and blood glucose level. RIPova lo and C57/BL6 mice (wt control group) received four immunisations with empty vector or OVAcyt (using PMID), ±GM-CSF (using PMID), and ±Imiquimod. Immunisations were given at 3 weeks intervals. Imiquimod was applied topically on the site of immunisation 24 h after PMID. 7 Days after the last immunisation splenocytes and serum samples were taken. […] The functional test for tolerance breaking in this model is development of diabetes. This is measured by urine glucose levels.

[1] = tested on: mice immunised with p731-RNG (GW825780X); assay: IFNγ Elispot after PMID immunisation with p731-RNG, imiquimod at 0 h or 24 h; type: in vivo, mouse; conditions: application 24 h post immunisation; 2×0.5 ug p731-RNG by PMID; spleens day 14; GAG CD8 peptide AMQMLKETI; FIG. 5
Description: (§1) Plasmid DNA was precipitated onto 2 μm diameter gold beads using calcium chloride and spermidine. Equal amounts of plasmids encoding antigen (p7313OVAcyt, p7313RNG, pVAC7VNTRMuc1, pVAC7VNTRMuc1-PADRE or pVAC7VNTRMuc1-HepB) and p7313GMCSF plasmids were mixed and co-precipitated so that all beads were coated with a mixture of the 2 plasmids ensuring delivery of both plasmids to the same cell. Unless otherwise stated both the antigen and GMCSF were loaded at 0.5 ug/cartridge. Where lower doses of antigen were used the GMCSF loading remained at 0.5 ug and the total DNA on the cartridge was adjusted to 1 ug using p7313empty or pVACempty plasmids. Loaded beads were coated onto Tefzel tubing as described in, for example, Eisenbraum, et al. 1993. DNA Cell Biol. 12:791-797; Pertmer et al, 1996 J. Virol. 70:6119-6125). Particle bombardment was performed using the Accell gene delivery (PCT WO 95/19799; incorporated herein by reference). […]
(§2) Cells were removed from the plates by washing once with water (with 1 minute soak to ensure lysis of cells) and three times with PBS. […] Spots were enumerated using an image analysis system devised by Brian Hayes, Asthma Cell Biology unit, GSK or the AID Elispot reader (Cadama Biomedical, UK). […]
Spleens were harvested at day 14 post immunisation and the cellular responses analysed by IFNγ Elispot following stimulation with a GAG balb/c CD8 9mer peptide: AMQMLKETI.

[2] = tested on: C57/bl6 mice immunised with OVAcyt; assay: In vivo cytotoxicity assay (SIINFEKL pulsed CSFE labelled splenocytes); set-up: species or system mouse; conditions: 3 mice per group; Day 7, 14, 21 and 42 post immunisation; FIG. 18
Description: The effect of GMCSF and Imiquimod on cytotoxic responses to p7313OVA after primary immunisation was also measured by in vivo cytotoxicity assays (FIG. 18). C57/bl6 mice were immunised with either OVAcyt or OVAcyt+GMCSF by PMID. At 24 hours post immunisation imiquimod was applied on the immunisation site. At Day 7, 14, 21 and 42 post immunisation mice were injected i.v. with CSFE labelled splenocytes consisting of [sequence] peptide pulsed and unpulsed in equal numbers. After 2 hours the blood was analysed by flow cytometry and the ratio of pulsed to unpulsed cells remaining was calculated to give a numerical value of cytotoxicity.

[3] = tested on: C56BI/6 mice immunised with p7313OVAcyt; assay: ELISPOT after primary PMID immunisation with p7313OVAcyt; type: in vivo, mouse; conditions: delivered singly with p7313 OVAcyt; Day 7 post primary immunisation; FIG. 8
Description: as §1, with “reference). Female C56BI/6 mice were immunised with 2 administrations of plasmid at each time point as detailed in the results section, one on each side of the abdomen after shaving.” for “reference).”
as §2

[4] = tested on: mice immunised with pVAC7VNTR muc1; assay: Elispot of Muc1 CD4 responses after immunisation with pVAC7VNTR muc1; type: in vivo, mouse; conditions: immunised days 0 and 21; day 7 post boost; compared to pVAC 7VNTRMuc1 alone; FIG. 12
Description: For OVA assays peptide SIINFEKL, a dominant CD8 peptide of OVA, was used in assays at a final concentration of 50 nM to measure CD8 responses and peptide […] was used at a final concentration of 10 μM to measure CD4 responses. For ICS assays Ovalbumin protein was also used to measure CD4 responses at 1 mg/ml. For ELISPOT to detect responses to p7313RNG peptide the CD8 peptide AMQMLKETI was used for stimulation. For detecting responses to Muc1, CD4 peptides […] and […] were used at 10 uM, and CD8 peptide SAPDNRPAL was used at 10 nM. The 9-mer peptides used to follow CD8 responses to Gag and RT in mice were […] (Gag CD8) and YYPDSKDLI (RT CD8) respectively, and CD4 responses to Gag and RT were followed using […] (Gag CD4) and […] (RT CD4) respectively. Peptide […] (Nef 218) was also tested. These peptides were tested at a final concentration of 10 μM. The peptides were obtained from Genemed Synthesis, South San Francisco.
Experiments were carried out to determine the effect of GMCSF and Imiquimod treatment on responses to pVAC7VNTR Muc1. Mice were immunised at days 0 and 21 with pVAC7VNTR muc1. This was delivered alone, co-delivered with p7313GMCSF, or with p7313GMCSF and Imiquimod application at 24 hours post immunisation. Spleens were harvested at day 7 post boost and analysed by Elispot following overnight stimulation with Muc1 CD4 peptides.

[5] = tested on: TLRs 1-9 mRNA in monocyte derived DC; assay: Taqman analysis of TLR expression on IFNγ treated DC; type: cell-based, human; conditions: DC treated with IFNγ for 24 hours; 3 healthy donors; FIG. 6
Description: Monocytes were isolated from the PBMC of 3 healthy donors and cultured with IL-4 & GM-CSF for 7 days to induce differentiation to immature DC. The DC were then treated with IFNγ for 24 hours. mRNA expression of TLRs 1-9 was then measured by Taqman. In contrast to published reports we have shown that low levels of TLR7 are constitutively expressed on monocyte derived DC. […] The increase in TLR7 expression at 24 hours post stimulation in vitro provides an explanation for the results in FIG. 5 showing the good effect of Imiquimod at 24 hours post immunisation.

Molecule	CD8 responses (IFNγ and IL2 production in CD8+ T cells) (RIP OVAlo mice)	adjuvant effect on cellular responses, IFNγ Elispot [1]	in vivo cytotoxicity [2]	adjuvant effect in Elispot assays [3]	Muc1 CD4 responses (Elispot) [4]	mRNA expression of TLR2 [5]	mRNA expression of TLR7 and TLR8 [5]
CC(C)Cn1cnc2c(N)nc3ccccc3c21 [Imiquimod, imiquimod]	there are responses	good adjuvant effect	clear benefit over OVA alone	adjuvant effects	improved CD4 responses	–	–
GMCSF	there are responses	–	–	adjuvant effects	improved CD4 responses	–	–
IFNγ: interferon-gamma used to treat monocyte derived DC for 24 hours	–	–	–	–	–	upregulated but to a lesser extent	expression of TLR8 and increased levels of expression of TLR7 were found in all 3 donors
